The values that follow come from US10975119B2, “Selective cysteine protease inhibitors and uses thereof” (Genesis Technologies Limited, priority 2011, dated 2021).

Molecules are shown by their SMILES. Like-named read-outs stand apart in the source and are kept apart here.

Format in all cases: biochemical
One assay has as its target T1, Caspase-3 (Homo sapiens, UniProt P42574).
T1 construct: mixing the compounds with the respective active caspases; purchased BioVision K153-100
T1 sequence (P42574 29-175 limits assumed): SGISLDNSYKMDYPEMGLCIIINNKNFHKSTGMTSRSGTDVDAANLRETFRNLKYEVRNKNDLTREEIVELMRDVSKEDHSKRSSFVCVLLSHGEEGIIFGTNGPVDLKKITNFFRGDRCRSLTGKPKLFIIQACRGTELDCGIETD
T1 sequence (P42574 176-277 limits assumed): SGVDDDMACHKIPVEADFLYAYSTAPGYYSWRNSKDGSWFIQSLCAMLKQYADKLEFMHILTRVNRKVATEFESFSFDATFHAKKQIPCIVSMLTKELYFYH
The experiment in a line: Caspase-3 inhibitor screening assay (BioVision kit, DEVD-AFC). Conditions: for inhibition at 10 µM: read-out: % Inhibition at 10 uM Casp3; for inhibition at 100 µM: read-out: % Inhibition at 100 uM Casp3. The gist of the method: (§1)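 Each caspase cleaved its own AFC-labelled peptide substrate, and released AFC was read by fluorescence. % inhibition came from RFU against an uninhibited control.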

The target in the next assay is T2, Caspase-4 (Homo sapiens, UniProt P49662).
T2 construct: mixing the compounds with the respective active caspases; purchased BioVision K154-100
T2 sequence (P49662 81-270 limits assumed): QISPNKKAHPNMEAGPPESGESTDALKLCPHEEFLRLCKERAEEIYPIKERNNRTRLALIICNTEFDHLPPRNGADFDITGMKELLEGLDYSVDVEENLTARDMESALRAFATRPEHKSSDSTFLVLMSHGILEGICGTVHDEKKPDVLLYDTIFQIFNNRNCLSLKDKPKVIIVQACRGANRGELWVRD
T2 sequence (P49662 290-377 limits assumed): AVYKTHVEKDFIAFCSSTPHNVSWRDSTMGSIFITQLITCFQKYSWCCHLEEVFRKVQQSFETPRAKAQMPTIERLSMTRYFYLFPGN
The experiment in a line: Caspase-4 inhibitor screening assay (BioVision kit, LEVD-AFC). The conditions noted are these: for inhibition at 10 µM: read-out: % Inhibition at 10 uM Casp4; for inhibition at 100 µM: read-out: % Inhibition at 100 uM Casp4; for IC50: read-out: IC50 Casp4. Summed up:
as §1

Another assay addresses T3, Caspase-5 (Homo sapiens, UniProt P51878).
T3 construct: mixing the compounds with the respective active caspases; purchased BioVision K155-100
T3 sequence (P51878 137-327 limits assumed): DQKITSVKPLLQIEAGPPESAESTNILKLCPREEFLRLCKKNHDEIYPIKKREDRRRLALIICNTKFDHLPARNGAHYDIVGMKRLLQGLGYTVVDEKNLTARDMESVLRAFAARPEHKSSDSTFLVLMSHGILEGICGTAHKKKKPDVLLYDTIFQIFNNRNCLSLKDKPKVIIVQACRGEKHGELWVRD
T3 sequence (P51878 347-434 limits assumed): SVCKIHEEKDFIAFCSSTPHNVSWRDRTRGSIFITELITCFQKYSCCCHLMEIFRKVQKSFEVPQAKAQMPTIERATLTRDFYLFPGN
The experiment in a line: Caspase-5 inhibitor screening assay (BioVision kit, WEHD-AFC). The conditions noted are these: for inhibition at 10 µM: read-out: % Inhibition at 10 uM Casp5; for inhibition at 100 µM: read-out: % Inhibition at 100 uM Casp5; for IC50: read-out: IC50 Casp5. The gist of the method:
as §1

A further assay has as its target T4, Caspase-6 (Homo sapiens, UniProt P55212).
T4 construct: mixing the compounds with the respective active caspases; purchased BioVision K156-100
T4 sequence (P55212 24-179 limits assumed): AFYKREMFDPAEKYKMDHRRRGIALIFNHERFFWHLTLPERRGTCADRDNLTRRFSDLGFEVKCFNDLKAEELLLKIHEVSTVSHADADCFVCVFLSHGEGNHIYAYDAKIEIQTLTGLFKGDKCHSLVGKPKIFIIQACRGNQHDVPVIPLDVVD
T4 sequence (P55212 194-293 limits assumed): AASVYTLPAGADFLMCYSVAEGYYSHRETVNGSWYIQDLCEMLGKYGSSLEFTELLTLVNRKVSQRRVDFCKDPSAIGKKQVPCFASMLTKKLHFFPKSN
The experiment in a line: Caspase-6 inhibitor screening assay (BioVision kit, VEID-AFC). The conditions noted are these: for inhibition at 10 µM: read-out: % Inhibition at 10 uM Casp6; for inhibition at 100 µM: read-out: % Inhibition at 100 uM Casp6; for IC50: read-out: IC50 Casp6. Summed up: as §1

In the next assay the target is T5, Caspase-8 (Homo sapiens, UniProt Q14790).
T5 construct: mixing the compounds with the respective active caspases; purchased BioVision K158-100
The experiment in a line: Caspase-8 inhibitor screening assay (BioVision kit, IETD-AFC). The conditions noted are these: for inhibition at 10 µM: read-out: % Inhibition at 10 uM Casp8; for inhibition at 100 µM: read-out: % Inhibition at 100 uM Casp8; for IC50: read-out: IC50 Casp8. The gist of the method: as §1

Another assay concerns the target T6, Caspase-10 (Homo sapiens, UniProt Q92851).
T6 construct: mixing the compounds with the respective active caspases; purchased BioVision K160-100
T6 sequence (Q92851 220-415 limits assumed): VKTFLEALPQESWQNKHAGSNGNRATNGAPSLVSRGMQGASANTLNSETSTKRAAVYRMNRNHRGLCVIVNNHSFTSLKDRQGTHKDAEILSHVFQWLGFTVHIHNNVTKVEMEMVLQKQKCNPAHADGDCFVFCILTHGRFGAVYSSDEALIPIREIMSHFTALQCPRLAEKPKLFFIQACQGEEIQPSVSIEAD
T6 sequence (Q92851 416-521 limits assumed): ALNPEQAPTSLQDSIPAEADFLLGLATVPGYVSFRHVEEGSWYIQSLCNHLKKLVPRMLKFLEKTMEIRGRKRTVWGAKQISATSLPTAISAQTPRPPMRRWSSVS
The experiment in a line: Caspase-10 inhibitor screening assay (BioVision kit, AEVD-AFC). Conditions: for inhibition at 10 µM: read-out: % Inhibition at 10 uM Casp10; for inhibition at 100 µM: read-out: % Inhibition at 100 uM Casp10; for IC50: read-out: IC50 Casp10. The gist of the method:
as §1

T5 sequence (Q14790 217-374 limits assumed): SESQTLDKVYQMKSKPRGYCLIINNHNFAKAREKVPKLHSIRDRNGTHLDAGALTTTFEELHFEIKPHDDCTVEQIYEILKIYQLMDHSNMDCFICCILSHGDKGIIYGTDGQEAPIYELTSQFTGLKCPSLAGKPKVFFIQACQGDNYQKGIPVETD
T5 sequence (Q14790 385-479 limits assumed): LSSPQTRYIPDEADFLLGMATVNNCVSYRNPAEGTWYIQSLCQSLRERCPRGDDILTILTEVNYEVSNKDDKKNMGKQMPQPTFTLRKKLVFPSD

Regarding `CS(=O)(=O)/C=C/[C@H](CC(=O)O)NC(=O)[C@H]1CCCN1C(=O)[C@@H](NC(=O)[C@H](CC(=O)O)NC(=O)OCc1ccccc1)c1ccccc1` [Compound 30, Z-Asp-Phenylglycine-Pro-Asp-methyl vinyl sulfone], the inhibition at 10 µM at Caspase-3 was 68%; at Caspase-4, 50%; on Caspase-5, 8%; at Caspase-6, 0%; at Caspase-8, 22%; on Caspase-10, 43%. Besides, the inhibition at 100 µM on Caspase-3 was determined as 95%; on Caspase-4, 100%; at Caspase-5, 50%; on Caspase-6 it was 2%; on Caspase-8, 79%; on Caspase-10, 92%. In addition, the half-inhibitory concentration (IC50) at Caspase-3 (read-out: IC50 Casp3) is 3.4 µM; on Caspase-3 (read-out: potency (IC50) against caspase-3), 3.41 µM; on Caspase-4, 9.94 µM; on Caspase-5 it was roughly 100 µM; at Caspase-6 it was greater than 100 µM; on Caspase-8, 32.5 µM. At Caspase-10, the IC50 was determined as 12.9 µM.

For the compound `CC(C)[C@H](NC(=O)[C@H](Cc1cn(C)c2ccccc12)NC(=O)[C@H](CC(=O)O)NC(=O)OCc1ccccc1)C(=O)N[C@H](/C=C/S(C)(=O)=O)CC(=O)O` [Compound 36, Z-Asp-Trp(N-Me)-Val-Asp-methyl vinyl sulfone], the inhibition at 10 µM worked out at 98% on Caspase-3; 57% on Caspase-4; 14% on Caspase-5; 0% on Caspase-6; 0% at Caspase-8; 31% on Caspase-10. For the same compound, the inhibition at 100 µM at Caspase-3 amounted to 100%; at Caspase-4, 99%; at Caspase-5 it was 50%; on Caspase-6 it was 19%; at Caspase-8 it was 33%; on Caspase-10, 98%. Moreover, the IC50 is 0.09 µM at Caspase-3 (read-out: IC50 Casp3); 9.02 µM on Caspase-4; 25.4 µM at Caspase-5; greater than 100 µM on Caspase-6; greater than 100 µM at Caspase-8; 18.6 µM at Caspase-10.

On to `CCOC(=O)/C=C/[C@H](CC(=O)O)NC(=O)[C@H]1CCCN1C(=O)[C@@H](NC(=O)c1ccc(N)c(Cl)c1)C(C)(C)C` [Compound 116, (4-amino-3-chlorobenzene carbonyl)-t-Leu-Pro-Asp Ethyl vinyl ester], for which the IC50 is 33.4 µM at Caspase-3 (read-out: IC50 Casp3); 0.03 µM on Caspase-4; 0.13 µM on Caspase-5; greater than 100 µM at Caspase-6; 0.6 µM at Caspase-8; 0.55 µM at Caspase-10.

For `CC(C)[C@H](NC(=O)c1ccc2ccccc2n1)C(=O)N[C@H](/C=C/S(C)(=O)=O)CC(=O)O` [Compound 16, 2-Quinoline carbonyl-Val-Asp methyl vinyl sulfone], the inhibition at 10 µM on Caspase-3 was 5%; at Caspase-4, 0%; on Caspase-5 it was 0%; on Caspase-6, 0%; at Caspase-8, 5%; at Caspase-10 it was 26%. In addition, the inhibition at 100 µM on Caspase-3 stood at 30%; at Caspase-4 it was 0%; on Caspase-5, 10%; at Caspase-6, 0%; at Caspase-8, 14%; on Caspase-10 it was 35%. For the same compound, the half-maximal inhibitory concentration (IC50) on Caspase-3 (read-out: IC50 Casp3), on Caspase-4, at Caspase-5, on Caspase-6, at Caspase-8 and at Caspase-10 was greater than 100 µM in each case.

In the case of `CC(C)(C)[C@H](NC(=O)c1ccc2ncccc2n1)C(=O)N1CCCC1C(=O)N[C@H](/C=C/S(C)(=O)=O)CC(=O)O` (stereo in doubt) [Compound 8, (1,5-Naphthyridine-2-carbonyl)-t-Leu-Pro-Asp methyl vinyl sulfone], the inhibition at 10 µM turned out to be 3% at Caspase-3; 88% on Caspase-4; 65% on Caspase-5; 2% on Caspase-6; 8% at Caspase-8; 27% at Caspase-10. Besides, the inhibition at 100 µM is 5% on Caspase-3; 100% at Caspase-4; 97% on Caspase-5; 1% at Caspase-6; 23% on Caspase-8; 90% at Caspase-10. Also, the IC50 at Caspase-3 (read-out: IC50 Casp3) is greater than 100 µM; on Caspase-4, 0.63 µM; at Caspase-5, 5.9 µM; on Caspase-6, greater than 100 µM; at Caspase-8, greater than 100 µM; at Caspase-10, 18 µM.

In the case of `CS(=O)(=O)/C=C/[C@H](CC(=O)O)NC(=O)C1CCCN1C(=O)[C@@H](NC(=O)[C@H](CC(=O)O)NC(=O)OCc1ccccc1)C1CC1` (stereo in doubt) [Compound 28, Z-Asp-Cyclopropylglycine-Pro-Asp-methyl vinyl sulfone], the inhibition at 10 µM at Caspase-3 turned out to be 91%; on Caspase-4 it was 73%; at Caspase-5, 14%; on Caspase-6, 2%; at Caspase-8, 20%; at Caspase-10 it was 82%. The inhibition at 100 µM on Caspase-3 turned out to be 99%; at Caspase-4, 100%; on Caspase-5 it was 69%; at Caspase-6, 4%; on Caspase-8 it was 80%; on Caspase-10, 99%. The 50% inhibitory concentration (IC50) at Caspase-3 (read-out: IC50 Casp3) was 0.78 µM; at Caspase-4, 5.22 µM; at Caspase-5, 46.2 µM; on Caspase-6, greater than 100 µM; at Caspase-8, 27.6 µM; on Caspase-10, 2.45 µM. The “change of potency against caspase-3 relative to compound 26” value on Caspase-3 (replacement of t-Leu at P3 of compound 26) is on record as 7 fold.

Regarding `CC(C)(C)[C@H](NC(=O)c1ccc2ncccc2c1)C(=O)N1CCCC1C(=O)N[C@H](/C=C/S(C)(=O)=O)CC(=O)O` (stereo in doubt) [Compound 10, Quinoline-6-carbonyl-t-Leu-Pro-Asp methyl vinyl sulfone], the inhibition at 10 µM was found to be 12% at Caspase-3; 91% at Caspase-4; 78% at Caspase-5; 0% at Caspase-6; 34% at Caspase-8; 65% at Caspase-10. In addition, the inhibition at 100 µM worked out at 16% at Caspase-3; 100% at Caspase-4; 98% at Caspase-5; 0% on Caspase-6; 94% on Caspase-8; 98% at Caspase-10. Moreover, the half-maximal inhibitory concentration (IC50) is greater than 100 µM at Caspase-3 (read-out: IC50 Casp3); 1.92 µM at Caspase-4; 3 µM at Caspase-5; greater than 100 µM on Caspase-6; 14.7 µM at Caspase-8; 4.67 µM on Caspase-10.

As usually defined, the inhibition is how much of the control response was suppressed. As usually defined, the IC50 is the concentration at which inhibition is half-maximal.
